Assays:
IFN-γ = IFN-γ levels in sera upon i.v. glycolipid administration to C57BL/6 mice (ELISA); assay type: in vivo; parameters: IFN-γ levels, test 1 / IFN-γ levels, test 2 / IFN-γ levels, average / IFN-γ levels, Total / IFN-γ (B6): unit not given here
Description: (§1) Five- to six-week-old female C57BL/6 mice and BALB/c mice were purchased from Taconic. Each glycolipid was stored at 1 mg/ml in 100% DMSO. Mice were injected intravenously with 1 μg of each glyocolipid diluted in 200 μL sterile phosphate buffered saline (PBS). At indicated time points, sera were collected from each animal, and concentrations of IFN-γ, IL-4, and IL-12 in the sera were evaluated by enzyme-linked immunosorbent assay (ELISA). Serum concentrations of IFN-γ, IL-4, and IL-12 were evaluated using an ELISA kit (eBioscience, San Diego, Calif.). Briefly, 96 well flat-bottom ELISA plates (NUNC) were coated with capture antibody according to the manufacture's recommendation and incubated overnight at 4° C. The plates were washed with PBS+0.05% Tween 20 (PBS-T), then incubated with manufacturer provided blocking solution for 1 hr at room temperature to block non-specific binding sites. After washing with PBS-T, sera diluted 1:10 was added to the wells and incubated for 2 hrs at room temperature. Plates were then incubated at room temperature for 1 hr with biotintylated detection antibody, washed, incubated with avidin conjugated to horse radish peroxidase (HRP) for 30 min at room temperature, washed, and finally incubated with tetramethylbenzidine substrate solution in the dark for 10 minutes at room temperature. The antibodies, avidin-HRP, and substrate solution were all diluted according to the manufacture's recommendation. Reactions were stopped with 2.0N sulfuric acid and the cytokine concentration in each well was determined by comparing the absorbance at 450 nm in each well to known standards. The levels of Th1- and Th2-type cytokines were determined in two different genetic backgrounds, i.e., in C57BL/6 mice and BALB/c mice. The following compounds were administered: A=compound (A-1 trans-conformer), B=compound (A-2), C=compound (A-3), D=compound (A-4), E=compound (A-5), Z=control (PBS alone), CRONY=α-C-GalCer, KRN=α-GalCer, GCK109 (A-1 trans-conformer), GCK151 (A-1 cis-conformer), GCK152 (A-7). The levels of cytokines were measured at 0, 2, 6, 12, 24, 48, and 72 hours after the compound administration. The levels of Th1-type cytokines IFN-γ and IL-12 are summarized in FIGS. 2A-C and 3A-C, respectively. Table 7 provides IFN-γ/IL-4 and IL-12/IL-4 ratios for various compounds, which can be used as indicators of their ability to selectively stimulate Th1-type immune responses.

IL-12 = IL-12 levels in sera upon i.v. glycolipid administration to BALB/c mice (ELISA); assay type: in vivo; parameters: IL-12 levels, test 1 / IL-12 levels, test 2 / IL-12 levels, average / IL-12 levels, Total: unit not given here
Description: as §1

melanoma metastases = settings: in vivo administration; cited from earlier work
[1] = system: rodent malaria parasites, P. yoeli and P. berghei; settings: in vivo administration; cited from earlier work

## CCCCCCCCCCCCCCCCCCCCCCCCCC(=O)N[C@@H](CC[C@H]1O[C@H](CO)[C@H](O)[C@H](O)[C@H]1O)[C@H](O)[C@H](O)CCCCCCCCCCCCCC [CRONY, reference compound]
IFN-γ; C57BL/6, ratio calculated from Tables 1-6
  IFN-γ/IL-4 (B6): 17
IFN-γ; C57BL/6, serum, hour 0
  IFN-γ levels, average: 31
  IFN-γ levels, test 1: 31
  IFN-γ levels, test 2: 31
IFN-γ; C57BL/6, serum, hour 2
  IFN-γ levels, average: 355.5
  IFN-γ levels, test 1: 359
  IFN-γ levels, test 2: 352
IFN-γ; C57BL/6, serum, hour 6
  IFN-γ levels, average: 1094.5
  IFN-γ levels, test 1: 1083
  IFN-γ levels, test 2: 1106
IFN-γ; C57BL/6, serum, hour 12
  IFN-γ levels, average: 2512.5
  IFN-γ levels, test 1: 2667
  IFN-γ levels, test 2: 2358
IFN-γ; C57BL/6, serum, hour 24
  IFN-γ levels, average: 6589.5
  IFN-γ levels, test 1: 6511
  IFN-γ levels, test 2: 6668
IFN-γ; C57BL/6, serum, hour 48
  IFN-γ levels, average: 777.5
  IFN-γ levels, test 1: 798
  IFN-γ levels, test 2: 757
IFN-γ; C57BL/6, serum, hour 72
  IFN-γ levels, average: 290
  IFN-γ levels, test 1: 279
  IFN-γ levels, test 2: 301
IFN-γ; C57BL/6, serum, total over hours 0-72
  IFN-γ levels, Total: 11653
IFN-γ; C57BL/6, total from Table 2
  IFN-γ (B6): 11652
IL-12; ratio calculated from Tables 1-6
  IL-12/IL-4 (BALB/c): 7
IL-12; serum, hour 0
  IL-12 levels, average: 5
  IL-12 levels, test 1: 5
  IL-12 levels, test 2: 5
IL-12; serum, hour 2
  IL-12 levels, average: 66
  IL-12 levels, test 1: 7
  IL-12 levels, test 2: 125
IL-12; serum, hour 6
  IL-12 levels, average: 1525
  IL-12 levels, test 1: 1556
  IL-12 levels, test 2: 1494
IL-12; serum, hour 12
  IL-12 levels, average: 1888.5
  IL-12 levels, test 1: 1717
  IL-12 levels, test 2: 2060
IL-12; serum, hour 24
  IL-12 levels, average: 210
  IL-12 levels, test 1: 338
  IL-12 levels, test 2: 82
IL-12; serum, hour 48
  IL-12 levels, average: 238
  IL-12 levels, test 1: 328
  IL-12 levels, test 2: 148
IL-12; serum, hour 72
  IL-12 levels, average: 91.5
  IL-12 levels, test 1: 9
  IL-12 levels, test 2: 174
IL-12; serum, total over hours 0-72
  IL-12 levels, Total: 4025
Melanoma metastases
  improved activity against melanoma metastases (as compared to α-GalCer): 100 fold
[1]
  improved activity against malaria (as compared to α-GalCer): 1000 fold

Reference: US8883745B2, “C—glycolipids with enhanced Th-1 profile” (New York University, priority 2006, dated 2014)
